The results in this text go back to ChEMBL document CHEMBL4251580, “Exploiting polypharmacology for improving therapeutic outcome of kinase inhibitors (KIs): An update of recent medicinal chemistry efforts” (Eur J Med Chem, 2018).

Molecules are shown by their SMILES.

Assay [1] addresses Epidermal growth factor receptor (Homo sapiens, UniProt P00533). The assay can be described thus: Inhibition of C-terminal His-tagged and N-terminal GST tagged human EGFR (668 to 1210 residues) expressed in baculovirus infected Sf9 cells using KHKKLAEGSAYEEV substrate peptide and gamma-[32P]ATP.
The nature of assay [2]: Inhibition of NF-kappaB (unknown origin) expressed in human U937 cells by luciferase reporter gene assay. The assay is classed as cell-based. Particulars: U-937. (In general: Reporter assays use an easily measured gene product as a stand-in for the process of interest.)
For a further assay, the system named is MDA-MB-231. The assay can be described thus: Growth inhibition of human MDA-MB-231 cells incubated for 72 hrs by Cell-titer Glo luciferase-based assay. The assay is classed as functional. To be noted: MDA-MB-231, 72 h.

Sequence of Epidermal growth factor receptor (P00533 whole entry, the tested form may be a part): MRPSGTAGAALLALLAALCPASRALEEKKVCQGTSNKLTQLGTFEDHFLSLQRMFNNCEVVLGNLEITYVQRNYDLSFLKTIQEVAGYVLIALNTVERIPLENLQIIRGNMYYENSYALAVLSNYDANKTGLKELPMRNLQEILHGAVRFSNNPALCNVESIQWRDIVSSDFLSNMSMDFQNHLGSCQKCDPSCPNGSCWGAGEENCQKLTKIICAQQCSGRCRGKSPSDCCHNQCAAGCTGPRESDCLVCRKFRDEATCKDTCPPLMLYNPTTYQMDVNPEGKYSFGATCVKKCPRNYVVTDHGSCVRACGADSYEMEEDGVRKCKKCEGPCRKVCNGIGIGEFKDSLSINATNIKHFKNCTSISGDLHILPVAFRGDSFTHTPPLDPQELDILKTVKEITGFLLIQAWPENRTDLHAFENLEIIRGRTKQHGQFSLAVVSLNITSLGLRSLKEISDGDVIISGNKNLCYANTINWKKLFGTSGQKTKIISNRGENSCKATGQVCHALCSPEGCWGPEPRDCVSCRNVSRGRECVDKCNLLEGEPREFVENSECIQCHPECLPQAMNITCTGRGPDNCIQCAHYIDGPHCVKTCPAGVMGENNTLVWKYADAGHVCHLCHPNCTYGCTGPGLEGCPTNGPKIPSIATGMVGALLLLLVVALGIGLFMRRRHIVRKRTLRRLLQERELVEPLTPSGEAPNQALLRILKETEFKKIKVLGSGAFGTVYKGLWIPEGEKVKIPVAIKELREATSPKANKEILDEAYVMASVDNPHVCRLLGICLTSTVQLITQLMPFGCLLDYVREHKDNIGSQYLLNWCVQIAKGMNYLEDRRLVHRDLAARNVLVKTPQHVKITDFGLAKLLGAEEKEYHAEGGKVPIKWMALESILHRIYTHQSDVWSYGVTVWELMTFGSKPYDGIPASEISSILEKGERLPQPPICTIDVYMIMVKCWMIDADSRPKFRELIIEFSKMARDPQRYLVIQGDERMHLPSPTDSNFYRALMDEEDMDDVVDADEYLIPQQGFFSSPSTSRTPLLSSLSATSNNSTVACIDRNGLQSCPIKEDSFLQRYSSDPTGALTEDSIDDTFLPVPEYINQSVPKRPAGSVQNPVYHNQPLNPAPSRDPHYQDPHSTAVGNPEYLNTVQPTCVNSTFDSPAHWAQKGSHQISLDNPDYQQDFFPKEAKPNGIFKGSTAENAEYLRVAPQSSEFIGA

By IC50 is commonly meant the concentration needed to halve the response being measured. A higher IC50 goes with a need for much substance. The GI50 is the concentration giving 50% growth inhibition. `Fc1cc(F)cc(NC(=S)Nc2ccc3ncnc(Nc4cccc(Br)c4)c3c2)c1`: the half-maximal inhibitory concentration (IC50) in assay [1] worked out at 0.06 µM; in assay [2], 0.3 µM. Moreover, the GI50 with MDA-MB-231 came to 1.1 µM.
